Experimental data reported in patent US20230123334A1, “AMINO LIPID COMPOUND, PREPARATION METHOD THEREFOR, AND APPLICATION THEREOF” (SHENZHEN SHENXIN BIOTECHNOLOGY CO., LTD., priority 2020, published 2023).

Key:
[1] = tested on: HEK293 cells; test: Preliminary screening as DNA vectors, GFP transfection of HEK293 cells; format: cell-based; details: HEK293 cells; lipid/DOPE liposome with 75 ng plasmid DNA (psin-EGFP-IRES-Puro); number of cells expressing GFP divided by total number of nuclei (Hoechst)
Summary of the method: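 First, amino lipid and DOPE were vortexed in sodium acetate buffer (pH 5.6) to form liposomes. Next, these were held with 75 ng EGFP plasmid at room temperature for 30 min. Finally, HEK293 cells were added, cultured at 37° C., Hoechst-stained, and GFP+/total nuclei scored by imaging.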

[2] = tested on: HEK293 cells; test: Preliminary screening as mRNA vectors, EGFP mRNA transfection of HEK293 cells; format: cell-based; details: HEK293 cells, 96-well plates, EGFP mRNA 50 ng per well; percentage of GFP fluorescent cells relative to total number of cells (Hoechst)
Summary of the method: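 Screening format: EGFP mRNA transfection (50 ng/well) into HEK293 in 10% FBS-supplemented DMEM. Percent green fluorescent cells, normalised to Hoechst nuclear count, gave the value; Lipofectamine2000 was the reference transfectant.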

Compound	Absolute DNA transfection efficiency in HEK293 cells [1] [%]	Absolute mRNA transfection efficiency in HEK293 cells [2] [%]
CCCCCCCCCCCCCCCCNc1nc(NCCCCCC)nc(NCCN(C)C)n1 [Compound N6N16D1]	0.4	0.0
CCCCCCCCCCCCCCCCNc1nc(NCCCCCC)nc(NCCN2CCOCC2)n1 [Compound N6N16D2]	0.0	0.1
CCCCCCCCCCCCCCCCNc1nc(NCCCCCC)nc(NCCN2CCCC2)n1 [Compound N6N16D3]	0.7	2.8
CCCCCCCCCCCCCCCCNc1nc(NCCCCCC)nc(NCCN2CCCCC2)n1 [Compound N6N16D4]	0.0	0.0
CCCCCCCCCCCCCCCCNc1nc(NCCCCCC)nc(NCCN2CCN(C)CC2)n1 [Compound N6N16D5]	0.0	0.1
CCCCCCCCCCCCCCCCNc1nc(NCCCCCC)nc(NCCCN(C)C)n1 [Compound N6N16D6]	0.2	0.4
CCCCCCCCCCCCCCCCNc1nc(NCCCCCC)nc(NCCN(CC)CC)n1 [Compound N6N16D7]	0.0	0.5
CCCCCCCCCCCCCCCCNc1nc(NCCCCCC)nc(NCCCN2CCOCC2)n1 [Compound N6N16D8]	0.6	0.0
CCCCCCCCCCCCCCCCNc1nc(NCCCCCC)nc(NCCCN2CCN(C)CC2)n1 [Compound N6N16D9]	0.0	0.0
CCCCCCCCCCCCCCCCNc1nc(NCCCCCC)nc(NCC2CCN(C)CC2)n1 [Compound N6N16D10]	0.7	0.8
CCCCCCCCCCCCCCCCCCNc1nc(NCCCCCC)nc(NCCN(C)C)n1 [Compound N6N18D1]	1.1	3.9
CCCCCCCCCCCCCCCCCCNc1nc(NCCCCCC)nc(NCCN2CCOCC2)n1 [Compound N6N18D2]	0.6	0.9
CCCCCCCCCCCCCCCCCCNc1nc(NCCCCCC)nc(NCCN2CCCC2)n1 [Compound N6N18D3]	3.4	3.9
CCCCCCCCCCCCCCCCCCNc1nc(NCCCCCC)nc(NCCN2CCCCC2)n1 [Compound N6N18D4]	2.0	0.2
CCCCCCCCCCCCCCCCCCNc1nc(NCCCCCC)nc(NCCN2CCN(C)CC2)n1 [Compound N6N18D5]	0.6	0.0
CCCCCCCCCCCCCCCCCCNc1nc(NCCCCCC)nc(NCCCN(C)C)n1 [Compound N6N18D6]	1.8	0.1
CCCCCCCCCCCCCCCCCCNc1nc(NCCCCCC)nc(NCCN(CC)CC)n1 [Compound N6N18D7]	0.9	0.3
CCCCCCCCCCCCCCCCCCNc1nc(NCCCCCC)nc(NCCCN2CCOCC2)n1 [Compound N6N18D8]	0.3	0.0
CCCCCCCCCCCCCCCCCCNc1nc(NCCCCCC)nc(NCCCN2CCN(C)CC2)n1 [Compound N6N18D9]	0.1	0.2
CCCCCCCCCCCCCCCCCCNc1nc(NCCCCCC)nc(NCC2CCN(C)CC2)n1 [Compound N6N18D10]	0.4	0.1
CCCCCCCNc1nc(NCCCCCCC)nc(NCCN(C)C)n1 [Compound N7N7D1]	0.0	0.0
